Source: paper PMC11915375 (ACS Infectious Diseases, 2025)
Like-named read-outs stand apart in the source and are kept apart here.

Key:
[1] = system: Leishmania major amastigotes; experiment: Leishmania major amastigote assay; format: cell-based; conditions: read-out: L. maj EC50
[2] = system: T. cruzi CA-I/72; experiment: T. cruzi in vitro assay, C2C12 host cell; format: cell-based, Trypanosoma cruzi
[3] = system: T. brucei; experiment: T. brucei proliferation inhibition assay; format: cell-based, Trypanosoma brucei; conditions: read-out: T. brucei EC50 ± S.D.
[4] = system: L. donovani; experiment: L. donovani in vitro assay; format: cell-based, Leishmania donovani
[5] = Leishmania donovani, read-out: L. don EC50, B10R host cell line
[6] = Trypanosoma cruzi, C2C12, read-out: T. cruzi EC50

EC50 ([1]; amastigotes) | EC50 ([1]; Leishmania major) | Molecule | EC50 ([2]; read-out: T. cruzi EC50, C2C12 host cell) | EC50 [3] | EC50 [4, 5] | EC50 [2, 6] | EC50 ([3]; Trypanosoma brucei) | EC50 ([4]; read-out: L. don EC50, B10R host cell line)
> 3.6 µM |  | 7-(4-((4-Methyl-1,4-diazepan-1-yl)sulfonyl)phenyl)-N-(4-(trifluoromethoxy)phenyl)cinnolin-4-amine [Compound 20b] | > 10 µM | 0.58 ± 0.25 µM |  |  |  | 
 | > 21 µM | Cc1ccc(Nc2cnnc3ccc(-c4ccc(S(=O)(=O)N5CCN(C)CC5)cc4)cc23)cn1 [Compound 13a, 6-(4-((4-Methylpiperazin-1-yl)sulfonyl)phenyl)-N-(6-methylpyridin-3-yl)cinnolin-4-amine] |  |  | > 10 µM | 8.2 µM | 1.3 ± 0.027 µM | 
 | 0.005 µM | CN1CCN(S(=O)(=O)c2ccc(-c3ccc4nncc(Nc5ncc(Cl)cn5)c4c3)cc2)CC1 [Compound 14a, N-(5-Chloropyrimidin-2-yl)-6-(4-((4-methylpiperazin-1-yl)sulfonyl)phenyl)cinnolin-4-amine] |  |  |  | 4.1 µM | 0.82 ± 0.19 µM | 0.069 µM
 | > 20 µM | COc1ccc(Nc2cnnc3cc(-c4ccc(S(=O)(=O)N5CCN(C)CC5)cc4)ccc23)cc1 [Compound 18b, N-(4-Methoxyphenyl)-7-(4-((4-methylpiperazin-1-yl)sulfonyl)phenyl)cinnolin-4-amine] |  |  |  | 3.2 µM | 12 ± 0.63 µM | 
 | > 4.6 µM | CN1CCN(c2ncc(-c3ccc4nncc(Nc5ncc(Cl)cn5)c4c3)cn2)CC1 [Compound 26a, N-(5-Chloropyrimidin-2-yl)-6-(2-(4-methylpiperazin-1-yl)pyrimidin-5-yl)cinnolin-4-amine] |  |  | > 10 µM | 2.7 µM |  | 
 | > 23 µM | COc1ccc(Nc2cnnc3cc(-c4cnc(N5CCCN(C)CC5)nc4)ccc23)cc1 [Compound 30b, N-(4-Methoxyphenyl)-7-(2-(4-methyl-1,4-diazepan-1-yl)pyrimidin-5-yl)cinnolin-4-amine] |  |  |  | 0.29 µM | 0.24 ± 0.088 µM | 
 | > 20 µM | COc1cnc(Nc2cnnc3ccc(-c4ccc(S(=O)(=O)N5CCCN(C)CC5)cc4)cc23)nc1 [Compound 35a, N-(5-Methoxypyrimidin-2-yl)-6-(4-((4-methyl-1,4-diazepan-1-yl)sulfonyl)phenyl)cinnolin-4-amine] |  |  |  | > 10 µM | 0.27 ± 0.008 µM | 

The next lines start with the molecule.

Molecule | EC50 ([1]; amastigotes) | EC50 ([1]; Leishmania major) | EC50 ([2]; read-out: T. cruzi EC50, C2C12 host cell) | EC50 [3] | EC50 [4, 5] | EC50 [2, 6] | EC50 ([3]; Trypanosoma brucei) | EC50 ([4]; read-out: L. don EC50, B10R host cell line)
C[C@@H]1[C@H](O)[C@@H](C)/C=C/C=C/C=C/C=C/C=C/C=C/C=C/[C@H](O[C@@H]2O[C@H](C)[C@@H](O)[C@H](N)[C@@H]2O)C[C@@H]2O[C@](O)(C[C@@H](O)C[C@@H](O)[C@H](O)CC[C@@H](O)C[C@@H](O)CC(=O)O[C@H]1C)C[C@H](O)[C@H]2C(=O)O [Amphotericin B, reference compound] |  |  |  |  | 0.07 µM |  |  | 
O=C(Cn1ccnc1[N+](=O)[O-])NCc1ccccc1 [Benznidazole, reference compound] |  |  |  |  |  | 3.77 µM |  | 
CN1CCN(S(=O)(=O)c2ccc(-c3ccc4nncc(Nc5ncccn5)c4c3)cc2)CC1 [Compound 16a, 6-(4-((4-Methylpiperazin-1-yl)sulfonyl)phenyl)-N-(pyrimidin-2-yl)cinnolin-4-amine] |  | > 22 µM |  |  | 9 µM | > 10 µM |  | 
COc1ccc(Nc2cnnc3cc(-c4ccc(S(=O)(=O)N5CCN(C)CC5)cc4)ccc23)nc1 [Compound 19b, N-(5-Methoxypyridin-2-yl)-7-(4-((4-methylpiperazin-1-yl)sulfonyl)phenyl)cinnolin-4-amine] |  | > 20 µM |  |  | > 10 µM | > 10 µM |  | 
COc1ccc(Nc2cnnc3cc(-c4ccc(N5CCN(C)CC5)cc4)ccc23)cc1 [Compound 23b, N-(4-Methoxyphenyl)-7-(4-(4-methylpiperazin-1-yl)phenyl)cinnolin-4-amine] |  | > 24 µM |  |  |  | 1.1 µM | 0.078 ± 0.031 µM | 
COc1ccc(Nc2cnnc3cc(-c4cnc(N5CCN(C)CC5)nc4)ccc23)cc1 [Compound 27b, N-(4-Methoxyphenyl)-7-(2-(4-methylpiperazin-1-yl)pyrimidin-5-yl)cinnolin-4-amine] |  | > 4.7 µM |  |  |  | 3.3 µM | 0.36 ± 0.076 µM | 
